# Read-outs that look alike come from different tables or passages of the source.
# Key:
# [1] = system: M. tuberculosis H37Ra (ATCC 25177); assay: Mycobacterium tuberculosis MIC assay; assay type: cell-based; settings: Mycobacterium tuberculosis
# Experimental: (§1) The culture was then diluted with fresh medium until an OD600 of 0.01 was reached. […] The final DMSO concentration was maintained at 0.5%. […] Three rows were reserved for each compound. […] OD600 absorbance was recorded using SPECTRAMAX M5 (Molecular Devices). Data obtained from three independent experiments were analyzed using Excel.
# as §1, with “EXCEL.” for “Excel.”
# [2] = system: MRSA-2; assay: MIC assay with Tiron or metal(II) cation co-treatment; assay type: cell-based, Staphylococcus aureus
# [3] = system: human red blood cells; assay: Hemolysis assay with red blood cells
# Experimental: The hemolysis activities of select compounds of the invention were determined. […] The washing was repeated three times with the buffer. In 96-well plate, test compounds were added to the buffer from DMSO stocks. […] The plate was then incubated for 1 hour at 37° C. After incubation, the plate was centrifuged for 5 minutes at 3,500 rpm. Then 80 μL of the supernatant was transferred to another 96-well plate, and the optical density (OD) was read at 405 nm. DMSO served as the negative control (0% hemolysis), while Triton X served as the positive control (100% hemolysis). The percent of hemolysis was calculated as (OD405 of the compound−OD405 of DMSO)/(OD405 of Triton X−OD405 of the buffer).
# The washing was repeated three times with the buffer. In 96-well plate, test compounds were added to the buffer from DMSO stocks. […] The plate was then incubated for 1 hour at 37° C. After incubation, the plate was centrifuged for 5 minutes at 3,500 rpm. Then 80 μL of the supernatant was transferred to another 96-well plate and the optical density (OD) was read at 405 nm. DMSO served as our negative control (0% hemolysis) while Triton X served as our positive control (100% hemolysis). The percent of hemolysis was calculated as (OD405 of the test compound−OD405 DMSO)/(OD405 Triton X−OD405 buffer) from three independent experiments.
# [4] = system: MRSA-2 planktonic cells and biofilms; assay: Calgary Biofilm Device (CBD) assay, MBC/MBEC; assay type: cell-based, Staphylococcus aureus
# [5] = system: MRSE (S. epidermidis ATCC 35984) planktonic cells and biofilms; assay: Calgary Biofilm Device (CBD) assay, MBC/MBEC; assay type: cell-based, Staphylococcus epidermidis; settings: Table 8; for MBC: Staphylococcus epidermidis, read-out: MRSE 35984 MBC
# [6] = system: Staphylococcus epidermidis (ATCC 12228); assay: MIC assay (broth microdilution, CLSI); assay type: cell-based
# [7] = system: Enterococcus faecium (ATCC 700221), VRE; assay: MIC assay (broth microdilution, CLSI); assay type: cell-based
# [8] = system: MRSA-2 (methicillin-resistant Staphylococcus aureus clinical isolate); assay: MIC assay (broth microdilution, CLSI); assay type: cell-based; settings: read-out: MIC, MRSA-2
# [9] = system: VRE (E. faecium ATCC 700221) planktonic cells and biofilms; assay: Calgary Biofilm Device (CBD) assay, MBC/MBEC; assay type: cell-based, Enterococcus faecium; settings: Enterococcus; Table 8; c lowest concentration tested; read-out: VRE 700221 MBC
# [10] = system: S. epidermidis 12228; assay: MIC assay with Tiron or metal(II) cation co-treatment; assay type: cell-based, Staphylococcus epidermidis
# [11] = system: E. faecium 700221 (VRE); assay: as above; assay type: cell-based, Enterococcus faecium
# [12] = system: MRSA-1 (methicillin-resistant Staphylococcus aureus clinical isolate); assay: MIC assay (broth microdilution, CLSI); assay type: cell-based; settings: Table 2A
# [13] = system: Staphylococcus epidermidis (ATCC 35984), MRSE; assay: MIC assay (broth microdilution, CLSI); assay type: cell-based
# [14] = in vitro; assay type: cell-based; settings: human
# Experimental: (§2) The cytotoxicities of select compounds of the invention against HeLa cells were determined. HeLa cytotoxicity was assessed using the LDH release assay described by CYTOTOX96 (Promega G1780). HeLa cells were grown in Dulbecco's Modified Eagle Medium (DMEM; Gibco) supplemented with 10% Fetal Bovine Serum (FBS) at 37° C. with 5% CO2. […] Triton X-100 (at 2% v/v) was used as the positive control for maximum lactate dehydrogenate (LDH) activity in this assay (e.g., complete cell death), while “medium only” lanes served as negative control lanes (e.g., no cell death). DMSO was used as the vehicle control. […] Finally, Stop Solution (50 μL) was added to the incubating plates, and the absorbance was measured at 490 nm.
# (§3) HeLa cytotoxicity was assessed using the LDH release assay described by CYTOTOX96 (Promega G1780). HeLa cells were grown in Dulbecco's Modified Eagle Medium (DMEM; Gibco) supplemented with 10% Fetal Bovine Serum (FBS) at 37° C. with 5% CO2. […] Triton X-100 (at 2% v/v) was used as the positive control for maximum lactate dehydrogenate (LDH) activity in this assay (e.g., complete cell death), while “medium only” lanes served as negative control lanes (e.g., no cell death). DMSO was used as our vehicle control. […] Finally, Stop Solution (50 μL) was added to the incubating plates and the absorbance was measured at 490 nm. Results are from three independent experiments (FIG. 19)
# [15] = system: HeLa cells; assay: in vitro; assay type: cell-based
# Experimental: as §2, §3
# [16] = system: MRSA BAA-1707; assay: MIC assay (broth microdilution, CLSI); settings: Staphylococcus aureus, read-out: MIC, MRSA BAA-1707
# [17] = system: MRSA BAA-44; assay: MIC assay (broth microdilution, CLSI); settings: Staphylococcus aureus, read-out: MIC, MRSA BAA-44
# [18] = MRSA-2, + loss, − increase of activity
# [19] = Staphylococcus aureus, MRSA, Table 8, a/b 2-/4-fold range in independent experiments, read-out: MRSA-2 MBC
# [20] = Staphylococcus epidermidis, ATCC12228, Table 7, b lowest concentration tested, read-out: MIC, S. epidermidis 12228
# [21] = Table 7, b lowest concentration tested, read-out: MIC, VRE 700221
# [22] = Staphylococcus aureus, MRSA, Table 4, read-out: MBC, MRSA-2
# [23] = Staphylococcus aureus, MRSA, Table 7, a midpoint of 2-fold range, b lowest concentration tested
# [24] = S. epidermidis 12228, + loss, − increase of activity
# [25] = E. faecium 700221, + loss, − increase of activity
compound,measurement,setting,value
"[H]/N=C(/N)N[C@H]1[C@H](O)[C@@H](O)[C@H](O[C@@H]2O[C@@H](C)[C@](O)(C=O)[C@H]2O[C@@H]2O[C@@H](CO)[C@H](O)[C@@H](O)[C@@H]2NC)[C@@H](N/C(N)=N\[H])[C@@H]1O [Streptomycin, streptomycin, reference compound]",MIC,"[1]; 168 h, read-out: Mtb MIC",1.32 µM
same,MIC,"[1]; Table 7, read-out: MIC, M. tuberculosis H37Ra",1.32 µM
"CN(C)[C@@H]1C(O)=C(C(N)=O)C(=O)[C@@]2(O)C(O)=C3C(=O)c4c(O)cccc4[C@@](C)(O)[C@H]3C[C@@H]12 [Tetracyc., tetracycline, reference compound]",Fold Δ (Cu^2+),[2]; [18],n.a. (insignificant changes in MIC values (<2-fold changes))
same,Fold Δ (Fe^2+),[2]; [18],+16
same,MIC,"[2]; Staphylococcus aureus, MRSA-2, 200 μM copper(II), read-out: MIC with Cu^2+",1.56 µM
same,MIC,"[2]; Staphylococcus aureus, MRSA-2, 200 μM iron(II), read-out: MIC with Fe^2+",18.8 µM
same,MIC,"[2]; Staphylococcus aureus, MRSA-2, no additive (Table 9), read-out: MIC",1.17 µM
"N#CC(C#N)=NNc1cccc(Cl)c1 [CCCP, carbonyl cyanide m-chlorophenyl hydrazone, reference compound]",% Hemolysis at 200 μM,"[3]; 200 μM, red blood cells",3.5%
same,% Hemolysis at 200 μM,"[3]; Table 8, human red blood cells, 200 μM",3.5%
same,MBC,"[4]; Staphylococcus aureus, MRSA, Table 5, a/b midpoint of 2-/4-fold range, read-out: MRSA-2 MBC",31.3 µM
same,MBC,[4]; [19],31.3 µM
same,MBC,[5],31.3 µM
"O=C(O)CN(CCN(CC(=O)O)CC(=O)O)CC(=O)O [EDTA, ethylenediaminetetraacetic acid, reference compound]",% Hemolysis at 200 μM,"[3]; human, 1 h, 200 μM, pH 7.2",3.0%
same,MBC,[5],1000 µM
same,MRSE 35984 MBEC,[5],> 2000 µM
"CO[C@H]1/C=C/O[C@@]2(C)Oc3c(C)c(O)c4c(O)c(c(/C=N/N5CCN(C)CC5)c(O)c4c3C2=O)NC(=O)/C(C)=C\C=C\[C@H](C)[C@H](O)[C@@H](C)[C@@H](O)[C@@H](C)[C@H](OC(C)=O)[C@@H]1C [Rifampin, rifampin, reference compound]",MIC,[6]; [20],0.1 µM
same,% Hemolysis (200 μM),"[3]; human, 1 h, 200 μM, pH 7.2",8.0%
"Oc1c(I)cc(Br)c2nc3ccccc3nc12 [Compound 10, 4-Bromo-2-iodo-1-hydroxyphenazine]",MIC,"[7]; Enterococcus faecium, Table 2A, read-out: MIC, Enterococcus faecium (ATCC 700221)",6.25 µM
same,MIC,[7]; [21],6.25 µM
same,% Hemolysis (200 μM),"[3]; human, 1 h, 200 μM, pH 7.2",1.3%
same,% Hemolysis at 200 μM,"[3]; human, 1 h, 200 μM, pH 7.2",1.3%
same,MBC,[4]; [22],46.9 µM
same,MBC,[4]; [19],46.9 µM
same,melting point,,188 to 190 °C
"O=C(O)c1cn(C2CC2)c2cc(N3CCNCC3)c(F)cc2c1=O [Ciprofloxacin, ciprofloxacin, reference compound]",% Hemolysis (200 μM),"[3]; 200 μM, 1 h, 37 °C",1.8%
"C=CCc1cc(Br)c2nc3ccccc3nc2c1O [Compound 23, 2-Allyl-4-bromo-1-hydroxyphenazine]",MIC,[8]; [23],> 100 µM
same,MIC,[6]; [20],> 100 µM
same,MIC,[7]; [21],> 100 µM
"CC(=O)N[C@@H](CS)C(=O)O [NAC, N-acetyl cysteine, reference compound]",MBC,[4]; [22],> 2000 µM
same,MBC,[4]; [19],> 2000 µM
same,MBC,[5],> 2000 µM
same,MBC,[9],> 2000 µM
"Oc1cccc2cccnc12 [Compound 8-HQ, 8-hydroxyquinoline, reference compound]",effect of tiron co-treatment on antibacterial activity,[2]; MRSA-2,complete loss of antibacterial activity
same,MIC,"[2]; MRSA-2, 1 mM Tiron, read-out: MIC with Tiron",>100 µM
same,MIC,"[2]; MRSA-2, no additive (Table 9), read-out: MIC",6.25 µM
same,Fold Δ (Cu^2+),[2]; [18],n.a. (insignificant changes in MIC values (<2-fold changes))
same,Fold Δ (Fe^2+),[2]; [18],n.a. (insignificant changes in MIC values (<2-fold changes))
same,Fold Δ (Tiron),[2]; [18],+16
same,Fold Δ (MIC with Tiron vs MIC),"[2]; MRSA-2, + loss, − increase of antibacterial activity",+16
same,MIC,"[2]; Staphylococcus aureus, MRSA",6.25 µM
same,MIC,"[2]; Staphylococcus aureus, MRSA, read-out: MIC with Cu^2+",3.13 µM
same,MIC,"[2]; Staphylococcus aureus, MRSA, read-out: MIC with Fe^2+",6.25 µM
same,MIC,"[2]; Staphylococcus aureus, MRSA, read-out: MIC with Tiron",> 100 µM
same,MIC,"[10]; S. epidermidis 12228, 1 mM Tiron, read-out: MIC with Tiron",>100 µM
same,MIC,"[10]; S. epidermidis 12228, no additive, read-out: MIC",3.13 µM
same,Fold Δ (Cu^2+),[10]; [24],n.a. (insignificant changes in MIC values (≤2-fold changes))
same,Fold Δ (MIC with Tiron vs MIC),[10]; [24],>+32
same,Fold Δ (Tiron),[10]; [24],>+32
same,MIC,"[10]; Staphylococcus epidermidis, 12228",3.13 µM
same,MIC,"[10]; Staphylococcus epidermidis, 12228, read-out: MIC with Cu^2+",3.13 µM
same,MIC,"[10]; Staphylococcus epidermidis, 12228, read-out: MIC with Tiron",> 100 µM
same,MIC,[11],18.8 µM
same,Fold Δ (Cu^2+),[11]; [25],n.a. (insignificant changes in MIC values (≤2-fold changes))
same,Fold Δ (Tiron),[11]; [25],>+12
same,MIC,"[11]; Enterococcus faecium, VRE",18.8 µM
same,MIC,"[11]; Enterococcus faecium, VRE, read-out: MIC with Cu^2+",18.8 µM
same,MIC,"[11]; Enterococcus faecium, VRE, read-out: MIC with Tiron",> 100 µM
same,Fold Δ (MIC with Tiron vs MIC),"[11]; VRE 700221, + loss, − increase of activity",>+12
same,MIC,[11]; read-out: MIC with Tiron,> 100 µM
"Oc1c(I)cc(I)c2nc3ccccc3nc12 [Compound 4, 2,4,-Diiodo-1-hydroxyphenazine]",MIC,[8]; [23],3.13 µM
same,MIC,[8]; Table 2A,3.13 µM
same,"MIC, MRSA-1",[12],0.78 to 1.56 µM
same,MIC,[6]; [20],1.56 µM
same,MIC,"[6]; Table 2A, read-out: MIC, Staphylococcus epidermidis (ATCC 12228)",1.56 µM
same,MIC,"[13]; Staphylococcus epidermidis, Table 7, read-out: MIC, MRSE 35984",1.17 µM
same,"MIC, Staphylococcus epidermidis (ATCC 35984)",[13]; Table 2A,0.78 to 1.56 µM
same,MIC,"[7]; Table 2A, read-out: MIC, Enterococcus faecium (ATCC 700221)",6.25 µM
same,MIC,[7]; [21],6.25 µM
same,IC50 at 24 h,[14],> 100 µM
same,IC50,[15],> 100 µM
same,% Hemolysis (200 μM),[3],≤1%
same,% Hemolysis at 200 μM,"[3]; human, 1 h, 200 μM, pH 7.2",≤1%
same,MBC,[4]; [19],31.3 µM
same,"MBEC, MRSA-2",[4]; Table 4,93.8 µM
same,"MBEC:MBC ratio, MRSA-2",[4]; Table 4,3.0
same,MBC,"[4]; Table 4, read-out: MBC, MRSA-2",31.3 µM
same,MBC,[5],31.3 µM
same,MBC,[9],23.5 µM
same,MIC,[16],3.13 µM
same,MIC,[17],3.13 µM
